# Like-named read-outs stand apart in the source and are kept apart here.
# How the values were obtained:
# Format in all cases: cell-based
# [1] = tested on: KRAS-G12V mutant tumor cells SW620; assay: Cell Proliferation Inhibition Assay (SW620), Cell-titer GLO, 96 h; conditions: read-out: SW620(G12V)
# Method in brief: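 SW620 cells (1×10^3/well, low-attachment) were exposed to compound from 10000 to 0.03 nM (0.5% DMSO) for 96 h at 37°C. Viability was read by Cell-titer GLO luminescence. Inhibition was calculated relative to DMSO and blank wells, and IC50 obtained by curve fitting.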
# [2] = tested on: KRAS-G12D mutant tumor cells AGS; assay: Cell Proliferation Inhibition Assay (AGS), Cell-titer GLO, 96 h; conditions: read-out: AGS(G12D)
# Method in brief: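 AGS cells (KRAS-G12D) grown in low-attachment plates were exposed to compound for 96 h at 37°C. Viability was read by CellTiter-Glo luminescence and converted to % inhibition against max and blank wells. IC50 came from curve fitting.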
# [3] = biological target: T1, KRAS G12V-cRAF (Homo sapiens, UniProt P01116, G12V); assay: Cellular KRAS G12V-cRAF Binding Inhibition Assay (NanoBRET, AD293 stable cells); conditions: 3 h incubation
# T1 construct: expressed in transfected cells
# T1 sequence (P01116 1-188 isoform P01116-2 G12V): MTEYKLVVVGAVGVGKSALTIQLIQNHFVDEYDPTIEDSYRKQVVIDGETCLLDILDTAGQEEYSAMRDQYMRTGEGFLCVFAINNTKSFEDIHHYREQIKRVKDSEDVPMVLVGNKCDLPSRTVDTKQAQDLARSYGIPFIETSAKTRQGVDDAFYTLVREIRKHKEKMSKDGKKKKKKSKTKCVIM
# Method in brief: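 Live AD293 stable cells, NanoLuc donor with HaloTag NanoBRET 618 ligand acceptor added overnight. Inhibition percent from luminescence relative to max signal and medium blank; IC50 from curve fitting.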
# [4] = biological target: T2, KRAS G12D-cRAF (Homo sapiens, UniProt P01116, G12D); assay: Cellular KRAS G12D-cRAF Binding Inhibition Assay (NanoBRET, AD293 stable cells); conditions: 3 h incubation
# T2 construct: expressed in transfected cells
# T2 sequence (P01116 1-188 isoform P01116-2 G12D): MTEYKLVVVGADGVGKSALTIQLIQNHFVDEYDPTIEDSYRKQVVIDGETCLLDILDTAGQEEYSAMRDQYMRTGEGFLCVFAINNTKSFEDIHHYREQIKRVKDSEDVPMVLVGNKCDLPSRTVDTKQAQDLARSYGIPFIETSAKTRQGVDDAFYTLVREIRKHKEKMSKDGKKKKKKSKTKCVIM
# Method in brief: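 AD293 cells stably expressing KRAS G12D-NanoLuc and cRAF RBD-HaloTag were seeded at 1×10^4 cells/well with NanoBRET 618 ligand overnight. BRET signal was converted to % inhibition of binding relative to max and blank wells, and IC50 came from curve fitting.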
# [5] = Homo sapiens, SW-620, 96 h, SW620 cells, 96 h incubation, Cell-titer GLO
# [6] = Homo sapiens, AGS, 96 h, AGS cells, 96 h incubation, Cell-titer GLO
Structure (SMILES),"IC50 [1, 5] [nM]","IC50 [2, 6] [nM]",IC50 ([3]; read-out: NanoBRET KRAS G12V) [nM],IC50 ([4]; read-out: NanoBRET KRAS G12D) [nM],"IC50 ([1]; SW620 cells, 96 h incubation, Cell-titer GLO) [nM]","IC50 ([2]; AGS cells, 96 h incubation, Cell-titer GLO) [nM]","IC50 ([1]; Homo sapiens, SW-620, 96 h) [nM]","IC50 ([2]; Homo sapiens, AGS, 96 h) [nM]",IC50 ([3]; NanoBRET KRAS G12V) [nM],IC50 ([4]; NanoBRET KRAS G12D) [nM]
"CC1OCCCn2c(c3c4cc(ccc42)-c2csc(n2)CC(NC(=O)C2CC2C(F)F)C(=O)N2CCCC(N2)C(=O)OCC(C)(C)C3)-c2cc(N3CCCC(N(C)C)C3)cnc21 [Example 117, (1S,2S)-2-(difluoromethyl)-N-((1^5S,6^3S,4S,Z)-1^2-(3-(dimethylamino)piperidin-1-yl)-1^5,10,10-trimethyl-5,7-dioxo-1^8,1^9,6^1,6^2,6^3,6^4,6^5,6^6-octahydro-1^5H,1^7H-8-oxa-1(13,15)-pyrido[3',2':7,8][1,5]oxazonino[5,6-a]indola-2(4,2)-thiazola-6(1,3)-pyridazinacycloundecaphane-4-yl)cyclopropane-1-carboxamide]",0.21,0.86,8.1,1.8,,,,,,
"CC1CN(c2cnc3c(c2)-c2c4c5cc(ccc5n2CCCOC3C)-c2csc(n2)CC(NC(=O)C2CC2C(F)F)C(=O)N2CCCC(N2)C(=O)OCC(C)(C)C4)CCO1 [Example 130, (1S,2S)-2-(difluoromethyl)-N-((1^5S,6^3S,4S,Z)-1^5,10,10-trimethyl-1^2-((R)-2-methylmorpholino)-5,7-dioxo-1^8,1^9,6^1,6^2,6^3,6^4,6^5,6^6-octahydro-1^5H,^7H-8-oxa-1(13,15)-pyrido[3',2':7,8][1,5]oxazonino[5,6-a]indola-2(4,2)-thiazola-6(1,3)-pyridazinacycloundecaphane-4-yl)cyclopropane-1-carbox amide]",0.85,1.8,16.3,3.4,,,,,,
"CC1OCCCn2c(c3c4cc(ccc42)-c2csc(n2)CC(NC(=O)C2C(C)C2C)C(=O)N2CCCC(N2)C(=O)OCC(C)(C)C3)-c2cc(N3CC(C)N(C)C(C)C3)cnc21 [Example 171, (1r,2R,3S)-2,3-dimethyl-N-((1^5S,6^3S,4S,Z)-15,10,10-trimethyl-5,7-dioxo-1^2-((3S,5S)-3,4,5-trimethylpiperazin-1-yl)-1^8,1^9,6^1,6^2,6^3,6^4,6^5,6^6-octahydro-1^5H,1^7H-8-oxa-1(13,15)-pyrido[3',2':7,8][1, 5]oxazonino[5,6-a]indola-2(4,2)-thiazola-6(1,3)-pyridazinacycloundecaphane-4-yl)cyclopropane-1-carboxamide]",,,3.04,0.24,0.04,0.11,,,,
"CC1OCCCn2c(c3c4cc(ccc42)-c2csc(n2)CC(NC(=O)C24CC(C)(C2)C4)C(=O)N2CCCC(N2)C(=O)OCC(C)(C)C3)-c2cc(N3CCOCC3)cnc21 (centres unmarked) [Example 116, 3-methyl-N-((1^5S6^3S4S,Z)-1^5,10,10-trimethyl-1^2-morpholino-5,7-dioxo-1^8,1^9,6^1,6^2,6^3,6^4,6^5,6^6-octahydro-1^5H,1^7H-8-oxa-1(13,15)-pyrido[3',2':7,8][1,5]oxazonino[5,6-a]indola-2(4,2)-thiazola-6 (1,3)-pyridazinacycloundecaphane-4-yl)bicyclo[1.1.1]pentane-1-carboxamide]",4.1,8.27,37.8,9.57,,,,,,
"CC1OCCCn2c(c3c4cc(ccc42)-c2csc(n2)CC(NC(=O)C2CC2C(F)F)C(=O)N2CCCC(N2)C(=O)OCC(C)(C)C3)-c2cc(N3CC(N(C)C)C3)cnc21 [Example 94, (1S,2S)-2-(difluoromethyl)-N-((1^5S,6^3S,4S,Z)-1^2-(3-(dimethylamino)azetidin-1-yl)-1^5,10,10-trimethyl-5,7-dioxo-1^8,1^9,6^1,6^2,6^3,6^4,6^5,6^6-octahydro-1^5H,1^7H-8-oxa-1(13,15)-pyrido[3',2':7,8][1,5]oxazonino[5,6-a]indola-2(4,2)-thiazola-6(1,3)-pyridazinacycloundecaphane-4-yl)cyclopropane-1-carboxamide]",0.34,2.68,22.7,6.55,,,,,,
"CC1OCCCn2c(c3c4cc(ccc42)-c2csc(n2)CC(NC(=O)C2CC2C(F)F)C(=O)N2CCCC(N2)C(=O)OCC(C)(C)C3)-c2cc(N3CC(C)N(C)C(C)C3)cnc21 [Example 140, (1S,2S)-2-(difluoromethyl)-N-((1^5S,6^3S,4S,Z)-1^5,10,10-trimethyl-5,7-dioxo-1^2-((3S,5R)-3,4,5-trimethylpiperazin-1-yl)-1^8,1^9,6^1,6^2,6^3,6^4,6^5,6^6-octahydro-1^5H,1^7H-8-oxa-1(13,15)-pyrido[3',2':7,8] [1,5]oxazonino[5,6-a]indola-2(4,2)-thiazola-6(1,3)-pyridazinacycloundecaphane-4-yl)cyclopropane-1-carboxamide]",0.14,0.38,9.3,1.8,,,,,,
"CC1CN(c2cnc3c(c2)-c2c4c5cc(ccc5n2CCCOC3C)-c2csc(n2)CC(NC(=O)C2CC2C(F)F)C(=O)N2CCCC(N2)C(=O)OCC(C)(C)C4)CC(C)O1 [Example 128, (1S,2S)-2-(difluoromethyl)-N-((1^5S,6^3S,4S,Z)-1^2-((2S,6R)-2,6-dimethylmorpholino)-1^5,0,10-trimethyl-5,7-dioxo-1^8,1^9,6^1,6^2,6^3,6^4,6^5,6^6-octahydro-1^5H,1^7H-8-oxa-1(13,15)-pyrido[3',2':7,8][1,5]oxazonino[5,6-a]indola-2(4,2)-thiazola-6(1,3)-pyridazinacycloundecaphane-4-yl)cyclopropane-1-carboxamide]",0.29,1.28,11.4,2.5,,,,,,
"CC1OCCCn2c(c3c4cc(ccc42)-c2csc(n2)CC(NC(=O)C2CC2C(F)F)C(=O)N2CCCC(N2)C(=O)OCC(C)(C)C3)-c2cc(N3CCC4(CC3)COC4)cnc21 [Example 125, (1S,2S)-2-(difluoromethyl)-N-((1^5S,6^3S,4SZ)-1^5,10,10-trimethyl-5,7-dioxo-1^2-(2-oxa-7-azaspiro [3.5]nonan-7-yl)-1^8,1^9,6^1,6^2,6^3,6^4,6^5,6^6-octahydro-1^5H,1^7H-8-oxa-1(13,15)-pyrido[3',2':7,8][1,5]oxazonino[5,6-a]indola-2(4,2)-thiazola-6(1,3)-pyridazinacycloundecaphane-4-yl)cyclopropane-1-carboxamide]",0.6,2.8,14.7,4.55,,,,,,
"CC1OCCCn2c(c3c4cc(ccc42)-c2csc(n2)CC(NC(=O)C2CC2C(F)F)C(=O)N2CCCC(N2)C(=O)OCC(C)(C)C3)-c2cc(N3CCOCC3)cnc21 [Example 83, (1S,2S)-2-(difluoromethyl)-N-((1^5S,6^3S,4S,Z)-1^5,10,10-trimethyl-1^2-morpholino-5,7-dioxo-1^8,1^9, 6^1,6^2,6^3,6^4,6^56-octahydro-1^5H,1^7H-8-oxa-1(13,15)-pyrido[3',2':7,8][1,5]oxazonino[5,6-a]indola-2(4,2)-thiazola-6(1,3)-pyridazinacycloundecaphane-4-yl)cyclopropane-1-carboxamide]",0.33,2.04,11.9,2.88,,,,,,
"CC1OCCCn2c(c3c4cc(ccc42)-c2csc(n2)CC(NC(=O)C2CC2C(F)F)C(=O)N2CCCC(N2)C(=O)OCC(C)(C)C3)-c2cc(N3CCC(F)(F)CC3)cnc21 [Example 114, (1S,2S)-2-(difluoromethyl)-N-((1^5S,6^3S,4S,Z)-1^2-(4,4-difluoropiperidin-1-yl)-1^5,10,10-trimethyl-5,7-dioxo-1^8,1^9,6^1,6^2,6^3,6^4,6^5,6^6-octahydro-1^5H, 1^7H-8-oxa-1(13,15)-pyrido[3',2':7,8][1,5]oxazonino[5,6-alindola-2(4,2)-thiazola-6(1,3)-pyridazinacycloundecaphane-4-yl)cyclopropane-1-carbox amide]",3.4,15.7,65.8,19.4,,,,,,
"C[C@H]1C[C@@H]1C(=O)N[C@H]1Cc2nc(cs2)-c2ccc3c(c2)c(c2n3CCCOCc3ncc(N4CCN(C)CC4)cc3-2)CC(C)(C)COC(=O)[C@@H]2CCCN(N2)C1=O [Example 2, (1S,2S)-N-((6^3S,4S,Z)-10,10-dimethyl-1^2-(4-methylpiperazin-1-yl)-5,7-dioxo-1^8,1^9,6^1,6^2,6^3,6^4,6^5 ,6^6-octahydro-1^5H,1^7H-8-oxa-1(13,15)-pyrido[3',2':7,8][1,5]oxazonino[5,6-a]indola-2(4,2)-thiazola-6(1,3)-pyridazinacycloundecaphane-4-yl)-2-methylcyclopropane-1-carboxamide]",,,,,,,1.56,8.7,206,29.1

# Reference: patent EP4800018A1, “PAN-KRAS INHIBITOR AND USE THEREOF IN MEDICINES” (Betta Pharmaceuticals Co., Ltd., priority 2023, dated 2025)
